{"source": "patent US8017649B2", "about": "“Flavonoid compounds and uses thereof” (Howard Florey Institute of Experimental Physiology and …, priority 2005, dated 2011)", "key": {"[1]": {"test_system": "endothelium intact aortic rings", "assay": "Ca2+-induced contraction of rat aortic rings in Ca2+-free high-K+ solution", "assay_type": "cell-based", "description": "To determine the effect of flavonoids on responses to the influx of extracellular Ca^2+, contractile responses to exogenous application of Ca^2+ were examined in the presence of flavonoids in Ca^2+-free high-K^+ solution (60 mM, KPSS). Aortic rings were initially equilibrated at a resting tension of 1 g in normal Ca^2+-free PSS for 45 minutes. The bath medium was then replaced with Ca^2+-free KPSS for 45 minutes to determine a reference contraction to Ca^2+ (3×10^−3 M). Following a 30 minute re-equilibration period with Ca^2+-free PSS, the cumulative contractile responses to Ca^2+ (10^−5−3×10^−3 M) were determined in KPSS in the presence of a range of concentrations (10^−8-10^−4 M) of vehicle, 3′,4′-dihydroxyflavonol, 3-hydroxyflavone-3-hemiadipate, 3′,4′-dihydroxy-3-hemiadipate, 3-hydroxyflavone-3-phosphate. A 20 minute incubation period was allowed for the flavonoids before examining the responses to Ca^2+.\nTo determine the effect of flavonoids on responses to the influx of extracellular Ca^2+, contractile responses to exogenous application of Ca^2+ were examined in the presence of flavonoids in Ca^2+-free high-K^+ solution (60 mM, K+-PSS). Aortic rings were initially equilibrated at a resting tension of 1 g in Ca^2+-free PSS for 45 minutes. The bath medium was then replaced with Ca^2+-free K+-PSS for 45 minutes to determine a reference contraction to added Ca^2+ (3 mM). Following a 30 minute re-equilibration period with Ca^2+-free PSS, the cumulative contractile responses to Ca^2+ (10^−5−3×10^−3 M) were determined in K^+ PSS in the presence of vehicle (0.1% DMSO), or a range of concentrations (10^−7-10^−4 M) of 3′-hydroxyflavonol, F3HA, DiOHF3HA or F3P. A 20 minute incubation period was allowed for the flavonoids before examining the responses to Ca^2+. Experiments were conducted in the presence and absence of BuCHE (1000 U/L) to cleave the adipate in F3HA and DiOHF3HA. In experiments using F3P, phosphatase (1000 U/L) was used in some experiments to cleave the phosphate."}, "[2]": {"test_system": "endothelium-intact (EI) aortic rings", "assay": "PE-induced contraction of rat aortic rings", "assay_type": "cell-based", "description": "Rings were incubated for 20 minutes with DiOHF3HA at a range of concentrations (10^−7-10^−4 M) or vehicle (0.1% dimethyl sulphoxide, DMSO). A concentration response curve to PE (10^−9-10^−5 M) in endothelium-intact (EI) aortic rings was then performed. Experiments were conducted in the presence and absence of BuCHE (1000 U/L) to cleave the adipate in DiOHF3HA."}, "conscious rats": {"test_system": "conscious rats", "assay": "Endothelin-1-induced ischaemic stroke in conscious rats", "assay_type": "in vivo, rat", "conditions": "for hemineglect (sticky tape) test latency / infarct in cortex / infarct in striatum: DiOHF 10 mg/kg or DiOHF3HA 15 mg/kg/day i.v.; for infarct in cortex / infarct in striatum: 72 h", "description": "Ischaemic stroke was studied in conscious rats, with daily monitoring of neurological function and post mortem morphological assessment of cerebral infarcts at 72 hours alter stroke. Unilateral, transient cerebral ischaemia and reperfusion was induced in conscious rats by injection of the potent vasoconstrictor endothelin-1 outside but close to the right middle cerebral artery MCA, (via a pre-implanted guide tube). The ensuing stroke was graded on a scale of 0 to 5 by immediate behaviour, and potential neuroprotective compounds were injected intravenously 3 h after the stroke, and at 24 hour intervals thereafter.\nMale Hooded Wistar rats (280-340 g) were anaesthetised with pentobarbitone sodium in a volume of 0.6 ml (60 mg/kg i.p.) for insertion of an intravenous (i.v.) catheter into the jugular vein for acute drug administration, A 23-gauge stainless steel guide cannula was then stereotaxically implanted into the piriform cortex 2 mm dorsal to the right MCA (0.2 mm anterior, −5.2 mm lateral and −5.9 mm ventral). The cannula was secured with dental acrylate cement and two small screws inserted into the skull. The scalp was closed with sutures. Rats were housed individually on a 12 h day/night cycle at a temperature of 18-22° C. and allowed to recover for 5 days before induction of stroke.\nVaso constriction of the right middle cerebral artery (MCA) was induced in conscious rats by administration of the potent vasoconstrictor agent endothelin-1 (ET-1) (60 pmol in 3 μl of saline over 10 min) via a 30-gauge injector that protruded 2 mm beyond the end of the previously implanted stereotaxic guide cannula. The injector was held in place by a poly-tubing cuff and the rat was placed in a clear Plexiglass box for observation during ET-1 injection. During stroke induction we observed counter-clockwise circling, clenching and dragging of the contralateral forepaw, validating the correct placement of the cannula. These behavioural changes occurred within 2 to 10 minutes of the commencement of the ET-1 injection and similar behaviours have been reported by other researchers employing this model. We have assigned a rating scale of stroke severity based on these behavioural changes during stroke and have shown that vehicle-treated rats assigned with higher stroke ratings have greater infarct volumes and neurological deficits. […] Rectal temperatures were taken with a thermistor probe, prior to stroke and at 30- or 60-minute intervals for 3 hours after stroke.\nAll behavioural tests were conducted prior to any procedures (pre-surgery, day 1), immediately prior to ET-1-induced MCA occlusion (pre-ischemia, day 6) and 24, 48 and 72 hours after ET-1-induced MCA occlusion. The behaviour of each rat was compared to pre-stroke, thus each rat acted as its own control. All rats were coded so that the investigator was blinded to treatment condition. Neurological abnormalities were evaluated with the use of a neurological deficit score based on detection of abnormal posture and hemiplegia. Abnormal pastures were assessed by suspending rats by the tail and scoring twisting of the thorax and extension of the forelimbs. Hemiplegia was evaluated when rats were placed on a raised platform. Deficits were deemed to be present when the hind limb contralateral to the infarcted hemisphere slipped off the edge of the platform and/or when the contralateral forelimb slipped off when the snout and whiskers were not in contact with the surface. All behaviours were scored on the following scale: 0=no deficit; 1=slight; 2=moderate; and 3=severe. Thus, when scores were totalled the maximum neurological deficit score was 12. A score of 0 was considered normal.\nSensory hemi-neglect was evaluated using a test consisting of placing adhesive tapes (Avery adhesive label, […] circles) on the distal-radial region of each wrist, Placement of the first tape was randomised between contralateral and ipsilateral limbs. […]"}, "anaesthetised sheep": {"test_system": "anaesthetised sheep", "assay": "Myocardial ischaemia and reperfusion injury in anaesthetised sheep", "assay_type": "in vivo", "conditions": "higher dose: DiOHF3HA 6.7 mg/kg, DiOHF 5 mg/kg i.v.; 1 h ischaemia, 3 h reperfusion"}, "[3]": {"conditions": "mild to moderate strokes, DiOHF 10 mg/kg or DiOHF3HA 15 mg/kg/day i.v. from 3 h post-stroke"}, "[4]": {"conditions": "all stroke grades (2-4), DiOHF3HA 15 mg/kg/day"}}, "note": "“Also recorded” adds a separate entry of the source.", "data": [{"smiles": "O=c1c(O)c(-c2ccc(O)c(O)c2)oc2ccccc12", "note": "[DiOHF, 3′,4′-Dihydroxyflavonol, reference compound]", "values": [{"measurement": "Maximum Contraction (percent 3 mM Ca^2+)", "setting": "[1]; 10^−4 M, without BuCHE", "value": "18 ± 2", "unit": "percent 3 mM Ca^2+"}, {"measurement": "effect on PE-induced contraction", "setting": "[2]; alone, 0.1 mM", "value": "inhibit the response to PE in a concentration dependent manner"}, {"measurement": "hemineglect (sticky tape) test latency", "setting": "conscious rats; mild to moderate strokes", "value": "abolished the increase in hemineglect scores"}, {"measurement": "neurological deficit score", "setting": "conscious rats; [3]", "value": "reduced the neurological deficits at 48 and 72 h; also recorded: significantly improved neurological outcome"}, {"measurement": "infarct in cortex", "setting": "conscious rats; mild to moderate strokes", "value": "reduced the volume of infarct produced in the cerebral cortex; also recorded: significantly reduced the area of infarct"}, {"measurement": "infarct in striatum", "setting": "conscious rats; mild to moderate strokes", "value": "completely prevented an infarct developing in the striatum; also recorded: significantly reduced the area of infarct"}, {"measurement": "infarct size normalized to the area at risk (IS/AR)", "setting": "anaesthetised sheep", "value": "47±8", "unit": "%"}]}, {"smiles": "O=C(O)CCCCC(=O)Oc1c(-c2ccc(O)c(O)c2)oc2ccccc2c1=O", "note": "[DiOHF3HA, 3′,4′-dihydroxyflavone-3-hemiadipate]", "values": [{"measurement": "Maximum Contraction (percent 3 mM Ca^2+)", "setting": "[1]; 10^−4 M + BuCHE", "value": "35 ± 6", "unit": "percent 3 mM Ca^2+"}, {"measurement": "Maximum Contraction (percent 3 mM Ca^2+)", "setting": "[1]; 10^−4 M, without BuCHE", "value": "101 ± 1", "unit": "percent 3 mM Ca^2+"}, {"measurement": "effect on Ca^2+-induced contraction", "setting": "[1]; alone, highest concentration 10^−4 M", "value": "slight Ca2+ inhibitory action"}, {"measurement": "effect on Ca^2+-induced contraction", "setting": "[1]; alone, over the concentration range tested", "value": "little effect on calcium-induced contraction"}, {"measurement": "effect on Ca^2+-induced contraction", "setting": "[1]; in the presence of BuCHE or phosphatase (1000 U/L)", "value": "markedly enhanced the inhibitory effect; also recorded: equivalent inhibitory effect to DiOHF; also recorded: inhibit calcium-induced contraction"}, {"measurement": "effect on PE-induced contraction", "setting": "[2]; alone, 0.1 mM", "value": "no effect on PE-induced contraction"}, {"measurement": "effect on PE-induced contraction", "setting": "[2]; in the presence of esterase (BuCHE)", "value": "inhibit the response to PE in a concentration dependent manner; also recorded: marked inhibition"}, {"measurement": "area of damage in the striatum", "setting": "conscious rats; all stroke grades (2-4), DiOHF3HA 15 mg/kg", "value": "reduced the area of damage in the striatum"}, {"measurement": "infarct area through the cortex", "setting": "conscious rats; all stroke grades (2-4), DiOHF3HA 15 mg/kg i.v.", "value": "significantly reduced"}, {"measurement": "body weight following stroke", "setting": "conscious rats; [4]", "value": "no significant weight loss"}, {"measurement": "core temperature following intravenous injection", "setting": "conscious rats; [4]", "value": "not significantly different from pre-stroke temperature"}, {"measurement": "hemineglect (sticky label) test latency", "setting": "conscious rats; [4]", "value": "abolished; also recorded: significantly improved neurological function in the hemineglect test"}, {"measurement": "neurological deficit score", "setting": "conscious rats; all stroke grades (2-4), DiOHF3HA 15 mg/kg/day, 24, 48 or 72 hours", "value": "measurably improved neurological deficit scores"}, {"measurement": "hemineglect (sticky tape) test latency", "setting": "conscious rats; mild to moderate strokes", "value": "abolished; also recorded: significantly restored neurological function in the hemineglect test"}, {"measurement": "neurological deficit score", "setting": "conscious rats; [3]", "value": "no effect on neurological deficit scores"}, {"measurement": "infarct in cortex", "setting": "conscious rats; mild to moderate strokes", "value": "significantly reduced"}, {"measurement": "infarct in striatum", "setting": "conscious rats; mild to moderate strokes", "value": "significantly reduced the area of infarct through the striatum"}, {"measurement": "body weight following stroke", "setting": "conscious rats; mild to moderate strokes, DiOHF3HA 15 mg/kg/day", "value": "did not lose weight"}, {"measurement": "infarct size normalized to the area at risk (IS/AR)", "setting": "anaesthetised sheep", "value": "49±8", "unit": "%"}]}]}
